Experimental data from article PMC11439681, “The identification of potent dual-target monopolar spindle 1 (MPS1) and histone deacetylase 8 (HDAC8) inhibitors through pharmacophore modeling, molecular docking, molecular dynamics simulations, and biological evaluation” (Frontiers in Pharmacology, 2024).

Columns and labels:
MPS1 = target: T1, MPS1 (Homo sapiens, UniProt P33981); experiment: In vitro MPS1 inhibitory assay; assay type: biochemical
T1 construct: purchased Abcam
T1 sequence (P33981 1-857): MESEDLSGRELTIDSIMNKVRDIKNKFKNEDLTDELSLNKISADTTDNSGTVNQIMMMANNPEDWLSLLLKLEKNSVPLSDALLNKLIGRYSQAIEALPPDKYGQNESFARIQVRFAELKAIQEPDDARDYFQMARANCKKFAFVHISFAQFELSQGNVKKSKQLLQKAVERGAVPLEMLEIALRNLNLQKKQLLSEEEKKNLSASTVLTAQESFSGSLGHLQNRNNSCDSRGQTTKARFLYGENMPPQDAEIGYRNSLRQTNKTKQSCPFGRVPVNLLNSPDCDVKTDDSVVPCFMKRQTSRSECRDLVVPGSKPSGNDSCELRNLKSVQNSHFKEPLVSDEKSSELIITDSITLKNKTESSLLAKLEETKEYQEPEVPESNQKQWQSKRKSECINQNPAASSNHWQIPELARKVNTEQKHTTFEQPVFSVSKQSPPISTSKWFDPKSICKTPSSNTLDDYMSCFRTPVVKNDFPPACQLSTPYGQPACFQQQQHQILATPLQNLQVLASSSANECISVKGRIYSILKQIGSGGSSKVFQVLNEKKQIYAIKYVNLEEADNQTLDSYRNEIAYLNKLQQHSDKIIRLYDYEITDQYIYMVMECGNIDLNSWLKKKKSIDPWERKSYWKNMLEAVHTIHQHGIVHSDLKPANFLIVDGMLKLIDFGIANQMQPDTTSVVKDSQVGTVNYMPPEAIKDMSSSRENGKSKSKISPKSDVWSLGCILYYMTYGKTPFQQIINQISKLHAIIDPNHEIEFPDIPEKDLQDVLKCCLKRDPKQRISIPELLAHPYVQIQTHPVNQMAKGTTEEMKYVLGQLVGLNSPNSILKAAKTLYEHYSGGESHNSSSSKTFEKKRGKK
Procedure: The methodology is as previously described ([Naud et al., 2013]). In brief, the experiment was conducted using 384-well black low-volume plates, which were loaded with MPS1 (concentration range of 3–12.5 nM), 5 μM fluorescence-labelled peptide (sequence: 5FAM-[…]-CONH2), 10 μM ATP, 1% (v/v) DMSO or the test compound (concentrations in 1% (v/v) DMSO ranged from 0.25 to 100 μM), and assay buffer. […]. The plate was read on a Caliper EZ reader II (PerkinElmer Life Sciences, Waltham, MA, United States). […]

HEK293 = experiment: MTT cytotoxicity assay, HEK293 normal cells; assay type: cell-based; settings: Homo sapiens, 72 h cell treatment
Procedure: The cells (5 × 10^4 cells/well) were incubated overnight in 96-well plates. A series of solutions containing varying concentrations of inhibitors were added and incubated at 37°C for a period of 72 h. Subsequently, the culture medium was removed, followed by a subsequent incubation of the cells with a 5 mg/mL MTT stock solution for 4 h. After centrifugation, the precipitate was solubilized in DMSO and gently shaken for 15 min. Finally, the absorbance measurement at 570 nm was completed using a microplate reader. Data analysis was performed using GraphPad Prism 6.0 software.

Cn1cc(-c2cc3cnc(Nc4ccc(-c5cncn5/C=C/C(=O)NO)cc4Cl)cc3n2C(=O)OC(C)(C)C)cn1 [MPH-5]
IC50 (MPS1): 4.52 ± 0.21 nM | MPS1 IC50 of MPH-5 relative to AZ3146 (MPS1; vs AZ3146): about 8 fold | IC50 (HEK293): > 10 µM
